Measured values as given in ChEMBL document CHEMBL2311254, “Tuning the preference of thiodigalactoside- and lactosamine-based ligands to galectin-3 over galectin-1” (J Med Chem, 2013).
pKd: −log10 of the molar value.

Experiments:
Galectin-3 [1] = target: T1, Galectin-3 (Homo sapiens, UniProt P17931); experiment: Binding affinity to galectin-3 (unknown origin) by fluorescence polarization assay
Galectin-1 [2] = target: T2, Galectin-1 (Homo sapiens, UniProt P09382); experiment: Binding affinity to galectin-1 (unknown origin) by fluorescence polarization assay
Galectin-3 [3] = target: T1, Galectin-3; experiment: Ratio of LacNAc-beta-OMe Kd to compound Kd for galectin-3 (unknown origin)
Homo sapiens = organism: Homo sapiens; experiment: Selectivity ratio of Kd for galectin-1 (unknown origin) to Kd for galectin-3 (unknown origin)
Galectin-1 [4] = target: T2, Galectin-1; experiment: Ratio of LacNAc-beta-OMe Kd to compound Kd for galectin-1 (unknown origin)
Galectin-1 [5] = target: T2, Galectin-1; experiment: Ratio of Thiodigalactoside Kd to compound Kd for galectin-1 (unknown origin)
Galectin-3 [6] = target: T1, Galectin-3; experiment: Ratio of Thiodigalactoside Kd to compound Kd for galectin-3 (unknown origin)
Galectin-3 [7] = target: T1, Galectin-3; experiment: Binding affinity to galectin-3 (unknown origin)

T1 sequence (P17931 whole entry): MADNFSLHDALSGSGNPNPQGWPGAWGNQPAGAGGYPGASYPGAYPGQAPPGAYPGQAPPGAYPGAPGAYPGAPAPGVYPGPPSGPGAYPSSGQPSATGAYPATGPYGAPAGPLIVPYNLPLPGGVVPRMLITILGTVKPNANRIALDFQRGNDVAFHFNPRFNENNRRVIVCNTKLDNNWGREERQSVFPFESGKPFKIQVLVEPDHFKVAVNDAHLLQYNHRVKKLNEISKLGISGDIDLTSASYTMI
T2 sequence (P09382 whole entry): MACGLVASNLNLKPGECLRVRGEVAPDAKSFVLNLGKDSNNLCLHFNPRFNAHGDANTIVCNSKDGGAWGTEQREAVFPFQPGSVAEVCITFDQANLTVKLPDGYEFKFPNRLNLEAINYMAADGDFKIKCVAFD

| Compound | pKd (Galectin-3 [1]) | pKd (Galectin-1 [2]) | Ratio (Galectin-3 [3]) | Selectivity ratio (Homo sapiens) | Ratio (Galectin-1 [4]) | Ratio (Galectin-1 [5]) | Ratio (Galectin-3 [6]) | Activity (Galectin-3 [7]) |
| --- | --- | --- | --- | --- | --- | --- | --- | --- |
| [N-]=[N+]=NCCCO[C@@H]1O[C@H](CO)[C@@H](O[C@@H]2O[C@H](CO)[C@H](O)[C@H](n3cc(-c4ccc(Oc5ccccc5)cc4)nn3)[C@H]2O)[C@H](O)[C@H]1N1C(=O)c2ccccc2C1=O | 5.66 | 4.55 | 31 | 13 | 2.5 |  |  |  |
| [N-]=[N+]=NCCCO[C@@H]1O[C@H](CO)[C@@H](O[C@@H]2O[C@H](CO)[C@H](O)[C@H](OCc3ccc(Oc4ccccc4)cc3)[C@H]2O)[C@H](O)[C@H]1NC(=O)c1ccccc1 | 5.09 | 3.74 | 8.5 | 22 | 0.4 |  |  |  |
| [N-]=[N+]=NCCCO[C@@H]1O[C@H](CO)[C@@H](O[C@@H]2O[C@H](CO)[C@H](O)[C@H](OCc3ccc(Oc4ccccc4)cc3)[C@H]2O)[C@H](O)[C@H]1N1C(=O)c2ccccc2C1=O | 5.92 | 3.55 | 58 | 230 | 0.3 |  |  |  |
| OC[C@H]1O[C@@H](S[C@@H]2O[C@H](CO)[C@H](O)[C@H](O)[C@H]2O)[C@H](O)[C@@H](O)[C@H]1O |  |  |  |  |  |  |  | 43 µM |
| [N-]=[N+]=NCCCO[C@@H]1O[C@H](CO)[C@@H](O[C@@H]2O[C@H](CO)[C@H](O)[C@H](n3cc(-c4ccc(Oc5ccccc5)cc4)nn3)[C@H]2O)[C@H](O)[C@H]1NC(=O)c1ccccc1 | 5.55 | 5.17 | 25 | 2.4 | 10 |  |  |  |
| CO[C@@H]1O[C@H](CO)[C@@H](O[C@@H]2O[C@H](CO)[C@H](O)[C@H](O)[C@H]2O)[C@H](O)[C@H]1NC(C)=O | 4.16 |  |  | 1 |  |  |  |  |

Now from value to compound:

| pKd (Galectin-3 [1]) | pKd (Galectin-1 [2]) | Ratio (Galectin-3 [3]) | Selectivity ratio (Homo sapiens) | Ratio (Galectin-1 [4]) | Ratio (Galectin-1 [5]) | Ratio (Galectin-3 [6]) | Activity (Galectin-3 [7]) | Compound |
| --- | --- | --- | --- | --- | --- | --- | --- | --- |
| 6.44 | 4.08 |  | 230 |  | 0.3 | 120 |  | OC[C@H]1O[C@@H](S[C@@H]2O[C@H](CO)[C@H](O)[C@H](n3cc(-c4ccc(Oc5ccccc5)cc4)nn3)[C@H]2O)[C@H](O)[C@@H](n2cc(-c3ccc(Oc4ccccc4)cc3)nn2)[C@H]1O |
| 7.66 | 7.89 |  | 0.6 |  | 1850 | 1950 |  | OC[C@H]1O[C@@H](S[C@@H]2O[C@H](CO)[C@H](O)[C@H](n3cc(-c4cccc(O)c4)nn3)[C@H]2O)[C@H](O)[C@@H](n2cc(-c3cccc(O)c3)nn2)[C@H]1O |
| 7.36 | 7.31 |  | 1 |  | 490 | 980 |  | OC[C@H]1O[C@@H](S[C@@H]2O[C@H](CO)[C@H](O)[C@H](n3cc(-c4ccccc4)nn3)[C@H]2O)[C@H](O)[C@@H](n2cc(-c3ccccc3)nn2)[C@H]1O |
